Laboratory results reported in EP4582426A1, “PAN-KRAS INHIBITOR COMPOUND” (Adlai Nortye Biopharma Co., Ltd., priority 2022, dated 2024).

Columns and labels:
[1] = tested on: AsPC-1 (G12D); assay: In vitro cell proliferation inhibition test (CellTiter-Glo Luminescent Cell Viability Assay); assay type: cell-based; conditions: AsPC-1 cell line, Pancreas, KRAS (p.G12D), cells and compounds co-incubated 72 hours
Excerpt: (§1) Due to the diversity of RAS mutations and in order to evaluate the activity of compounds in different RAS mutant cell lines, we selected KRAS^WT, KRAS^G12C, KRAS^G12D), KRAS^G12V and BRAF mutant cell lines (see the table below) for in vitro activity evaluation and screening of compounds .
(§2) Experimental protocol: CellTiter-Glo® Cell Luminescent Viability Assay (Promega)
(§3) According to the doubling time of different cell lines, different numbers of cells (1000-5000 cells/well) were inoculated into 96-well plates containing 180 µl of the corresponding medium, and cultured overnight in a 37°C cell incubator containing 5% CO2. On the second day, the compound to be tested was pre-diluted 3-fold with the medium, the highest concentration was 100 µM, and there were 10 concentration gradients in total; then 20 µl of the medium containing different concentrations of the compound was added to the cells in the 96-well plate to ensure the final concentration of the compound to be up to 10 µM, with 10 concentration gradients of 3-fold dilutions. After co-incubating cells and compounds for 72 hours, the 96-well plate was taken out of the incubator, placed at room temperature for 30 minutes, and then 25 µl CellTiter-Glo® Reagent was added to each well to mix well, and incubated at room temperature for 10 minutes, and then 100 µl of the sample was transferred to a white 96-well plate (OptiPlateTM-96, PerkinElmer), the […] signal value was read using a multi-functional microplate reader (SpectraMax® i3x, Molecular devices). Subsequently, the signal value was standardized, and the four-parameter fitting regression equation was used for curve fitting to calculate the half maximal inhibitory concentration (IC50) of the compound on the cell line. Table 3: Antiproliferative activity of compounds of the present invention on KRAS cell mutants

[2] = tested on: SW480 (G12V); assay: as above; assay type: cell-based; conditions: SW480 cell line, Large intestine, Colon, KRAS (p.G12V), cells and compounds co-incubated 72 hours
Excerpt: as §1, §2, §3

## CCn1c(-c2cc(C#CCN3CCOCC3)cnc2[C@H](C)OC)c2c3cc(ccc31)-c1csc(n1)C[C@H](NC(=O)[C@H]1[C@H](C)[C@@H]1C)C(=O)N1CCC[C@H](N1)C(=O)OCC(C)(C)C2 [Example 2, (1r,2R,3S)-N-((63S,4S,Z)-11-ethyl-12-(2-((S)-1-methoxyethyl)-5-(3-morpholinoprop-1-yn-1-yl)pyridin-3-yl)-10,10-dimethyl-5,7-dioxo-61,62,63,64,65,66-hexahydro-11H-8-oxa-2(4,2)-thiazola-1(5,3)-indola-6(1,3)-pyridazinacycloundecaphane-4-yl)-2,3-dimethylcyclopropane-1-carboxamide]
[1]
  IC50: 0.25 nM
[1]; listed as 2'
  IC50: 172 nM
[2]
  IC50: 0.33 nM
[2]; listed as 2'
  IC50: 74 nM

## CCn1c(-c2cc(C#C[C@@H]3COCCN3C)cnc2[C@H](C)OC)c2c3cc(ccc31)-c1csc(n1)C[C@H](NC(=O)[C@H]1C[C@@H]1C)C(=O)N1CCC[C@H](N1)C(=O)OCC(C)(C)C2 [Example 7, (1S,2S)-N-((63S,4S,Z)-11-ethyl-12-(2-((S)-1-methoxyethyl)-5-(((R)-4-methylmorpholin-3-yl)ethynyl)pyridin-3-yl)-10,10-dimethyl-5,7-dioxo-61,62,63,64,65,66-hexahydro-11H-8-oxa-2(4,2)-Thiazola-1(5,3)-indola-6(1,3)-pyridazinacyclonecaphane-4-yl)-2-methylcyclopropane-1-carboxamide]
[1]
  IC50: 5.1 nM
[1]; listed as 7'
  IC50: 2640 nM
[2]
  IC50: 4.6 nM
[2]; listed as 7'
  IC50: 830 nM

## CCn1c(-c2cc(C#CC3CN(C)C3)cnc2C(C)OC)c2c3cc(ccc31)-c1csc(n1)CC(NC(=O)C1CC1C)C(=O)N1CCCC(N1)C(=O)OCC(C)(C)C2 [Example 12, (1S,2S)-N-((63S,4S,Z)-11-ethyl-12-(2-((S)-1-methoxyethyl)-5-((1-methylazetidin-3-yl)ethynyl)pyridin-3-yl)-10,10-dimethyl-5,7-dioxo-61,62,63,64,65,66-hexahydro-11H-8-oxa-2(4,2)-thiazola-1(5,3)-indola-6(1,3)-pyridazinacyclonecaphane-4-yl)-2-methylcyclopropane-1-carboxamide]
[1]
  IC50: 11.8 nM
[1]; listed as 12'
  IC50: 443 nM
[2]
  IC50: 33.9 nM
[2]; listed as 12'
  IC50: 1790 nM

## CCn1c(-c2cc(C#C[C@@H]3CCN3C)cnc2[C@H](C)OC)c2c3cc(ccc31)-c1csc(n1)C[C@H](NC(=O)[C@H]1C[C@@H]1C)C(=O)N1CCC[C@H](N1)C(=O)OCC(C)(C)C2 [Example 13, (1S,2S)-N-((63S,4S,Z)-11-ethyl-12-(2-((S)-1-methoxyethyl)-5-(((S)-1-methylazetidin-2-yl)ethynyl)pyridin-3-yl)-10,10-dimethyl-5,7-dioxo-61,62,63,64,65,66-hexahydro-11H-8-oxa-2(4,2)-Thiazola-1(5,3)-indola-6(1,3)-pyridazinacyclonecaphane-4-yl)-2-methylcyclopropane-1-carboxamide]
[1]
  IC50: 5.7 nM
[1]; listed as 13'
  IC50: 2820 nM
[2]
  IC50: 7590 nM

## CCn1c(-c2cc(C#C[C@@H]3CCN(C)C3)cnc2[C@H](C)OC)c2c3cc(ccc31)-c1csc(n1)C[C@H](NC(=O)C1[C@@H](C)[C@H]1C)C(=O)N1CCC[C@H](N1)C(=O)OCC(C)(C)C2 (stereo partly drawn) [Example 14]
[1]
  IC50: < 0.1 nM
[1]; listed as 14'
  IC50: 57.1 nM
[2]
  IC50: 0.2 nM

## CCn1c(-c2cc(C#CCN3CCOC[C@H]3C)cnc2[C@H](C)OC)c2c3cc(ccc31)-c1csc(n1)C[C@H](NC(=O)[C@H]1C[C@@H]1C)C(=O)N1CCC[C@H](N1)C(=O)OCC(C)(C)C2 [Example 15, (1S,2S)-N-((63S,4S,Z)-11-ethyl-12-(2-((S)-1-methoxyethyl)-5-(3-((R)-3-methylmorpholino)prop-1-yn-1-yl)pyridin-3-yl)-10,10-dimethyl-5,7-dioxo-61,62,63,64,65,66-hexahydro-11H-8-oxa-2 (4,2)-thiazola-1(5,3)-indola-6(1,3)-pyridazinacyclonecaphane-4-yl)-2-methylcyclopropane-1-carboxamide]
[1]
  IC50: 1.7 nM
[1]; listed as 15'
  IC50: 1880 nM
[2]
  IC50: 2.2 nM
[2]; listed as 15'
  IC50: 1060 nM

## CCn1c(-c2cc(C#Cc3ccccn3)cnc2[C@H](C)OC)c2c3cc(ccc31)-c1csc(n1)C[C@H](NC(=O)[C@H]1C[C@@H]1C)C(=O)N1CCC[C@H](N1)C(=O)OCC(C)(C)C2 [Example 16, (1S,2S)-N-((63S,4S,Z)-11-ethyl-12-(2-((S)-1-methoxyethyl)-5-(pyridin-2-ylethynyl)pyridin-3-yl)-10,10-dimethyl-5,7-dioxo-61,62,63,64,65,66-hexahydro-11H-8-oxa-2(4,2)-thiazola-1(5,3)-indola-6(1,3)-pyridazinacyclonecaphane-4-yl)-2-methylcyclopropane-1-carboxamide]
[1]
  IC50: 38.8 nM
[1]; listed as 16'
  IC50: 591 nM
[2]
  IC50: 28.8 nM
[2]; listed as 16'
  IC50: 584 nM

## CCn1c(-c2cc(C#Cc3cccnc3)cnc2C(C)OC)c2c3cc(ccc31)-c1csc(n1)CC(NC(=O)C1CC1C)C(=O)N1CCCC(N1)C(=O)OCC(C)(C)C2 [Example 17, (1S,2S)-N-((63S,4S,Z)-11-ethyl-12-(2-((S)-1-methoxyethyl)-5-(pyridin-3-ylethynyl)pyridin-3-yl)-10,10-dimethyl-5,7-dioxo-61,62,63,64,65,66-hexahydro-11H-8-oxa-2(4,2)-thiazola-1(5,3)-indola-6(1,3)-pyridazinacyclonecaphane-4-yl)-2-methylcyclopropane-1-carboxamide]
[1]
  IC50: 37.8 nM
[1]; listed as 17'
  IC50: 700 nM
[2]
  IC50: 30.2 nM
[2]; listed as 17'
  IC50: 474 nM

## CCn1c(-c2cc(C#C[C@@H]3COCCN3C)cnc2[C@H](C)OC)c2c3cc(ccc31)-c1csc(n1)C[C@H](NC(=O)[C@H]1C[C@@H]1C)C(=O)N1CCC[C@H](N1)C(=O)OCC(C)(C)C2 [Example 28, (1S,2S)-N-((6^3S,4S,Z)-1^1-ethyl-1^2-(2-((S)-1-methoxyethyl)-5-(((R)-4-methylmorpholin-3-yl)ethynyl)pyridin-3-yl)-10,10-dimethyl-5,7-dioxo-6^1,6^2,6^3,6^4,6^5,6^6-hexahydro-1^1H-8-oxa-2(4,2)-thiazola-1(5,3)-indola-6(1,3)-pyridazinacycloundecaphane-4-yl)-2-methylcyclopropane-1-carboxamide]
[1]
  IC50: 1.9 nM
[2]
  IC50: 2.5 nM

## CCn1c(-c2cc(C#Cc3cncnc3N)cnc2C(C)OC)c2c3cc(ccc31)-c1csc(n1)CC(NC(=O)C1C(C)C1C)C(=O)N1CCCC(N1)C(=O)OCC(C)(C)C2 [Example 34, (1r,2R,3S)-N-((6^3S,4S,Z)-1^2-(5-((4-aminopyrimidin-5-yl)ethynyl)-2-((S)-1-methoxyethyl)pyridin-3-yl)-1^1-ethyl-10,10-dimethyl-5,7-dioxo-6^1,6^2,6^3,6^4,6^5,6^6-hexahydro-1^1H-8-oxa-2(4,2)-thiazola-1(5,3)-indola-6(1,3)-pyridazinacycloundecaphane-4-yl)-2,3-dimethylcyclopropane-1-carboxamide]
[1]
  IC50: 1.3 nM
[2]
  IC50: 0.75 nM

## CCn1c(-c2cc(C#Cc3cnc(N)cn3)cnc2[C@H](C)OC)c2c3cc(ccc31)-c1csc(n1)C[C@H](NC(=O)[C@H]1C[C@@H]1C)C(=O)N1CCC[C@H](N1)C(=O)OCC(C)(C)C2 [Example 35, (1S,2S)-N-((6^3S,4S,Z)-1^2-(5-((5-aminopyrazin-2-yl)ethynyl)-2-((S)-1-methoxyethyl)pyridin-3-yl)-1^1-ethyl-10,10-dimethyl-5,7-dioxo-6^1,6^2,6^3,6^4,6^5,6^6-hexahydro-1^1H-8-oxa-2(4,2)-thiazola-1(5,3)-indola-6(1,3)-pyridazinacycloundecaphane-4-yl)-2-methylcyclopropane-1-carboxamide]
[1]; Homo sapiens, ASPC1
  IC50: 56 nM
[2]; Homo sapiens
  IC50: 37 nM
